Results published in patent US9491946B2, “Ag loaded silica nanoparticle/nanogel formulation, methods of making, and methods of use” (University of Central Florida Research Foundation, Inc., priority 2011, dated 2016).

Experiments:
[1] = test system: S. aureus, ATTC 25923; assay type: cell-based, Staphylococcus aureus; conditions: equivalent metallic Ag concentration
Experimental: (§1) Antibacterial properties of AgSiNP200 and AgSiNP50 were evaluated against Gram-positive, Bacillus subtilis (B. subtilis, ATCC 9372) and Staphylococcus aureus (S. aureus, ATTC 25923) and a Gram-negative, Escherichia coli (E. coli, ATCC 35218) organism. […] All the bacteria were obtained from the UCF Department of Molecular Biology and Microbiology Preparatory Laboratories) by Microbiology Department, University of Central Florida, Orlando. All the antibacterial assays were done using Mueller Hinton II medium (Fulka Analytical, USA).
(§2) The bacterial inhibition studies for the AgSiNP200 and AgSiNP50 were done using a method as described by Rastogi et al.^41. The procedure is briefly described below. Different concentrations of AgSiNP200 (metallic silver concentrations of 63.5 μg/ml, 38.1 μg/ml, 19.05 μg/ml, 9.53 μg/ml, 4.77 μg/ml, 2.68 μg/ml, 1.34 μg/ml, 953 ng/ml, 477 ng/ml, 95.3 ng/ml and 47.7 ng/ml) and AgSiNP50 (metallic silver concentrations of 30.24 μg/ml, 20.16 μg/ml, 10.08 μg/ml, 5.04 μg/ml, 2.52 μg/ml, 1.26 μg/ml, 630 ng/ml and 63 ng/ml) were prepared in sterile Mueller Hinton II broth in sterile tubes. To achieve uniform growth for this comparative study, all the tubes contained same amount of broth. We have used 0.85% of sterile saline to make up the volume to 0.9 ml in each tube. In the next step, 0.1 ml of 10^6 CFU/ml of bacteria culture was added to each tube. […]

[2] = test system: E. coli, ATCC 35218; assay type: cell-based, Escherichia coli; conditions: equivalent metallic Ag concentration
Experimental: as §1, §2

[3] = test system: B. subtilis, ATCC 9372; assay: growth inhibition assay by turbidity (OD 600 nm), Mueller Hinton II broth; assay type: cell-based, Bacillus subtilis; conditions: equivalent metallic Ag concentration
Experimental: as §1, §2

[4] = test system: B. subtilis, ATCC 9372; assay: bacterial growth inhibition in LB broth using turbidity (Example 2); assay type: cell-based, Bacillus subtilis; conditions: 24 hours, 37° C., OD 600 nm
Experimental: (§3) Antibacterial properties of C—S CuSiNP and AgSiNG materials were evaluated against a gram positive Bacillus subtilis (B. subtilis, ATCC 9372) and a gram negative Escherichia coli (E. coli, ATCC 35218) organism. For all antibacterial assays, bacterial concentration of 10^5 cells/mL was considered. Copper sulfate with same metallic copper concentration was used as positive controls and silica nanoparticle (without Cu loading) was used as negative control.
(§4) Two sets of different concentrations of C—S CuSiNP were made in LB broth (0.49, 1.2, 2.4, 4.9, 7.2 and 9.8 ppm copper concentration) to a final volume of 10 mL. 250 μL (10^5 cells/mL) of E. coli and B. subtilis were added to set 1 and 2 respectively. Silica nanoparticle was used as negative control and copper sulfate with equivalent amount of copper was used as positive control. […]
(§5) The growth inhibitory effects of C—S CuSiNP and AgSiNG against E. coli and B. subtilis were studied in liquid media (FIG. 2.3 and FIG. 2.4). Bacterial growth with different concentrations of C—S CuSiNP and AgSiNG (0.49 to 9.8 μg mL^−1) was monitored after 24 hours of incubation at 37° C. by measuring the optical density at 600 nm using Teysche800 spectrophotometer. Since the turbidity of silica based material can interfere with the optical density reading, the background measurement was subtracted to calculate the final reading.

[5] = test system: E. coli, ATCC 35218; assay: as above; assay type: cell-based, Escherichia coli; conditions: 24 hours, 37° C., OD 600 nm
Experimental: as §3, §4, §5

## O=[N+]([O-])[O-].[Ag+] [Ag nitrate, silver nitrate]
[1]
  growth inhibition result in words (controls versus AgSiNP nanoformulations): no significant difference in growth inhibition results
[2]
  growth inhibition result in words (controls versus AgSiNP nanoformulations): no significant difference in growth inhibition results
[3]
  growth inhibition result in words (controls versus AgSiNP nanoformulations): no significant difference in growth inhibition results
[4]
  silver concentration at which growth inhibition can be seen: 2.4 ppm
[5]
  silver concentration at which growth inhibition can be seen: 2.4 ppm
